Numbered stars: 1 amine (or outer) side, 2 acyl side, 3 side chain; on linkers, the order of the positions; unused ones are H or OH. Bridge positions count the residues as written; N and C are the ends. Side chains are listed from the residue outwards. Peptide text beside a SMILES is read from it. * marks the point of attachment. γGlu = O=C(O)[C@H](CCC(=O)[*:2])N[*:1]; Fumaroyl = O=C(O)/C=C/C(=O)*; Suc = O=C(CCC(=O)[*:2])[*:1]; Lauroyl = CCCCCCCCCCCC(=O)*; AEEA = NCCOCCOCC(=O)O
Assays:
rat model of pMACO [1] = experiment: Rotarod test in rat model of pMACO; assay type: in vivo, SD rats; settings: IRL1620 5 µg/Kg, BX34 7 µg/Kg, BX48 5 µg/Kg, administered 3 times (2, 4, 6 hours after modeling), n=10
Description: (§1) Male SD rats weighing 280-300 g were used and acclimated for at least 3 days. Focal cerebral ischemia was induced by middle cerebral artery occlusion with a suture method under isoflurane anesthesia. The animals were placed in a secure supine position, and a midline incision was made to expose the right common carotid artery, external carotid artery, and internal carotid artery. A 4.0 monofilament nylon suture was advanced from the external carotid artery toward the internal carotid artery lumen until resistance was felt ( ~ 20 mm), indicating middle cerebral artery occlusion. The nylon filament was allowed to stay in place to create a permanent model of focal cerebral ischemia. Successfully modeled rats were randomly assigned to four groups: a solvent (normal saline) group (n=10), a 7 µg/Kg BX-34 group (n=10), a 5 µg/Kg BX-48 group (n=10), and a 5 µg/Kg IRL1620 group (n=10). Each group was administered once at 2 hours, 4 hours, and 6 hours, respectively, after modeling, for a total of three administrations. Grip strength was measured before administration and at 24 hours and on D3 and D7 after administration. A rotarod test and a foot fault test were performed before administration and at 24 hours and day 7 after administration. During the rotarod test, time and distance were recorded, and ratios of the measurement at 24 hours and the measurement at D7 to the pretest measurement were used as analysis indicators. The specific method for the foot fault test was as follows. The rats were placed on an elevated grid floor (29×29 cm, grid opening: 3 cm^2) for 2 minutes, and the number of foot faults (when a forelimb fell through the grid) and the total steps were recorded. % Foot fault = (the number of forelimb faults/the total number of forelimb steps) × 100.

human ETA receptor = target: T1, human ETA receptor (Homo sapiens, UniProt P25101); experiment: Selectivity of polypeptides on human ETA receptor (IP-One Gq kit, % of positive control ET1); assay type: cell-based; settings: read-out: hETAR agonist activity, percentage of activity relative to ET1
T1 construct: expressed in transfected cells; host or cells: 293T-17 cells, transient transfection
T1 sequence (P25101 21-427): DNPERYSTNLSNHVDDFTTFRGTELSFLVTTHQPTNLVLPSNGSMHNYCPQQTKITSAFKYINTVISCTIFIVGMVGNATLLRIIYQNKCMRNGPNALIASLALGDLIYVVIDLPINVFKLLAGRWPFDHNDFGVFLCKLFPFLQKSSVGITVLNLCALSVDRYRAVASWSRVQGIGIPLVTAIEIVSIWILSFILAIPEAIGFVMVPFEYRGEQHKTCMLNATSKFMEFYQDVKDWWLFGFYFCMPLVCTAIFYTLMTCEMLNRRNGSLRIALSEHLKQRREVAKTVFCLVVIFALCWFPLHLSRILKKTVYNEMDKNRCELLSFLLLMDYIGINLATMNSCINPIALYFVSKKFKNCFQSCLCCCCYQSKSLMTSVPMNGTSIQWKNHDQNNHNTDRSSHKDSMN
Procedure, shortened: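 293T-17 cells transiently transfected with human ETA receptor (48 h), 30,000 cells/well exposed to polypeptides for 1 h at 37°C; IP1 accumulation by HTRF (665/620 nm ratio). Activity given as % of ET1 at the same concentration after PBS-control subtraction.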

rat model of pMACO [2] = experiment: Foot fault test in rat model of pMACO; assay type: in vivo, SD rats
Description: as §1

rat model of pMACO [3] = experiment: Grip strength test in rat model of pMACO; assay type: in vivo, SD rats; settings: pMACO rats; 3 administrations (2, 4, 6 h after modeling); IRL1620 5µg/Kg, BX34 7µg/Kg, BX48 5µg/Kg
[4] = Determination of half-lives of polypeptides (plasma, LC-MS)
rat model of pMACO [5] = experiment: Foot fault test in rat model of pMACO; assay type: in vivo, SD rats; settings: rat pMCAO; D7 after administration; comparison in words
human ETB receptor = target: T2, human ETB receptor (Homo sapiens, UniProt P24530); experiment: Determination of EC50 of polypeptides against human ETB receptor (IP-One Gq kit); assay type: cell-based; settings: 293T-17 cells transfected with PCDNA3.1-hETB; read-out: hETBR agonist activity EC50/nM
T2 construct: expressed in transfected cells; host or cells: 293T-17 cells, transient transfection
T2 sequence (P24530 27-442): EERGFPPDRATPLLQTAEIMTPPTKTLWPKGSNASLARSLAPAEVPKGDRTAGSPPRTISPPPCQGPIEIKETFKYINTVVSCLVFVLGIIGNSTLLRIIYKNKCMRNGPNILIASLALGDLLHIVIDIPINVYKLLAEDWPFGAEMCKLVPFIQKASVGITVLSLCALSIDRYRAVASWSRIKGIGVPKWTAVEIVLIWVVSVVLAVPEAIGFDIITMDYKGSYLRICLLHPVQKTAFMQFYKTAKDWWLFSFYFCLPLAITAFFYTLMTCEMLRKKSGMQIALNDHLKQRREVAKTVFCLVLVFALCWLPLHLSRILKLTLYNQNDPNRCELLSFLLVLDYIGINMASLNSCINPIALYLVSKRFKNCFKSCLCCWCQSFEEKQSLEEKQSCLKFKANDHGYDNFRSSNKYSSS
Experimental: 293T-17 cells were seeded at a density of 650,000 cells per well in a 6-well plate and cultured overnight in an incubator at 37°C and 5% CO2. Afterward, the cells were transfected with an expression vector, PCDNA3.1-hETB which contained a human ETB receptor gene, at a plasmid concentration of 2.5 µg per well. The cells were further cultured for 48 hours, and green fluorescence expression was observed under a fluorescence microscope. The cells were then digested with trypsin and counted. The activity of compounds on the human ETB receptor was determined with the IP-One Gq kit from Cisbio Bioassays. The cells were suspended in Stim Buffer provided in the kit and the cell suspension was added to a 96-well detection plate at 7 µL cell suspension (containing 30,000 cells) per well. The polypeptides to be tested (prepared according to the Preparation Example of the invention) were diluted in Stim B to obtain a gradient of 11 concentration points. For each concentration point, the polypeptides to be tested were dissolved in Stim B to be at a concentration of 2×, and added at 7 µL to the test cells, while 7 µL of PBS solution was added to the cells in the negative control wells. The plate was sealed and incubated at 37°C for 1 hour in a cell culture incubator. Detection wells, positive control wells containing human endothelin ET1 (ET1: […] (C1-C15,C3-C11)), and PBS control wells were each added with 3 µL of IP1 d2 working solution and 3 µL of IP1 Tb cryptotate Antibody working solution. The plate was then sealed and incubated in the dark at room temperature (25°C±5°C) for 1 hour. The plate seal was removed, and the […] at 665 nm and 620 nm was measured with an ID5 microplate reader. The ratio of the acceptor emission signal to the donor emission signal, i.e., (signal at 665 nm/signal at 620 nm)×10^4, was calculated for each well. With F representing the average value of values of signal at 665 nm/signal at 620 nm for the test samples at various concentrations, a scatterplot was plotted, where the abscissa represented the F value, and the ordinate represented the logarithmic value of the peptide concentration. A curve was fitted with an appropriate method to calculate EC50 values of the polypeptides against the human ETB receptor. Another method was provided for fitting a curve where activation rate of the test polypeptides at each concentration relative to the positive control sample human endothelin ET1 was calculated first with the method in Example 1, and a scatterplot was plotted, where the abscissa represented the activation rate, and the ordinate represented the logarithmic value of the polypeptide concentration. A curve was fitted with an appropriate method to calculate the EC50 values of the polypeptides against the human ETB receptor.

CC[C@H](C)[C@H](NC(=O)[C@H](CC(=O)O)NC(=O)[C@H](CC(C)C)NC(=O)[C@H](Cc1c[nH]cn1)NC(=O)[C@H](C)NC(=O)[C@H](Cc1ccccc1)NC(=O)[C@H](Cc1ccc(O)cc1)NC(=O)[C@@H]1CCCCNC(=O)CC[C@H](NC(=O)[C@H](CC(=O)O)NC(=O)CCC(=O)O)C(=O)N[C@@H](CCC(=O)O)C(=O)N[C@@H](C)C(=O)N1)C(=O)N[C@H](C(=O)N[C@@H](Cc1c[nH]c2ccccc12)C(=O)O)[C@@H](C)CC [BX-48] (Suc-DEEAKYFAHLDIIW-OH; lactam 2-5)
Rotarod Test 7D/pretest (%) Distance, m (rat model of pMACO [1]; 7D relative to pretest): 64.97%±19.43%
Rotarod Test 7D/pretest (%) Time, s (rat model of pMACO [1]; 7D relative to pretest): 81.64%±10.87%
Rotarod Test 7D/pretest (%) Velocity (rat model of pMACO [1]; 7D relative to pretest): 76.52%±13.55%
Rotarod Test 24h/pretest (%) Distance, m (rat model of pMACO [1]; 24h relative to pretest): 16.15%±22.62%
Rotarod Test 24h/pretest (%) Time, s (rat model of pMACO [1]; 24h relative to pretest): 23.79%±27.04%
Rotarod Test 24h/pretest (%) Velocity (rat model of pMACO [1]; 24h relative to pretest): 47.16%±30.9A %
activation at 10 µM (human ETA receptor; @10µM): 4.45%
activation at 100 µM (human ETA receptor; @100µM): 9.37%
percentages of foot faults compared with the saline group and the IRL1620 group (rat model of pMACO [2]; pMACO rats, BX-34 7 µg/Kg, BX-48 5 µg/Kg, three administrations): lower
Foot fault Analysis Mean of 7D (rat model of pMACO [2]; percentage of foot faults at 7D, IRL1620 5 µg/Kg, BX34 7 µg/Kg, BX48 5 µg/Kg, administered 3 times (2, 4, 6 hours after modeling)): 2.24%±3.1%
Foot fault Analysis Mean of 24h (rat model of pMACO [2]; percentage of foot faults at 24h, IRL1620 5 µg/Kg, BX34 7 µg/Kg, BX48 5 µg/Kg, administered 3 times (2, 4, 6 hours after modeling)): 10.89%±10.53%
Foot fault Analysis Mean of Pretest (rat model of pMACO [2]; percentage of foot faults, pretest (baseline before administration), groups IRL1620 5 µg/Kg, BX34 7 µg/Kg, BX48 5 µg/Kg, 3 times): 1.11%±0.95%
Grip Strength Test 3D/pre (rat model of pMACO [3]): 60% ±7%
Grip Strength Test 7D/pre (rat model of pMACO [3]): 66% ±22%
Grip Strength Test 24h/pre (rat model of pMACO [3]): 47% ±23%
half-life ([4]; C57 BL/6, mouse, plasma, iv): 3.9 min
AUClast 0-30 min ([4]; C57 BL/6 mice, i.v., dosage per compound 0.48, 0.96 or 1 mpk): 757 ng·h/mL
percentages of foot faults (rat model of pMACO [5]): lower than that of the saline group and the IRL1620 group

CCCCCCCCCCCC(=O)N[C@@H](CCC(=O)NCCOCCOCC(=O)NCCCC[C@H](NC(=O)[C@H](Cc1c[nH]cn1)NC(=O)[C@H](C)NC(=O)[C@H](Cc1ccccc1)NC(=O)[C@H](Cc1ccc(O)cc1)NC(=O)[C@@H](NC(=O)[C@H](C)NC(=O)[C@H](CCC(=O)O)NC(=O)[C@H](CCC(=O)O)NC(=O)[C@H](CC(=O)O)NC(=O)/C=C/C(=O)O)C(C)C)C(=O)N[C@@H](CC(=O)O)C(=O)N[C@H](C(=O)N[C@H](C(=O)N[C@@H](Cc1c[nH]c2ccccc12)C(=O)O)[C@@H](C)CC)[C@@H](C)CC)C(=O)O [BX-225-Na] (Fumaroyl-DEEAVYFAHK([AEEA-γGlu-Lauroyl])DIIW-OH)
EC50 (human ETB receptor): 134 nM

CC[C@H](C)[C@H](NC(=O)[C@H](CC(=O)O)NC(=O)[C@@H]1CCCCNC(=O)CC[C@H](NC(=O)[C@H](CCC(=O)O)NC(=O)[C@H](CCC(=O)O)NC(=O)[C@H](CC(=O)O)NC(=O)/C=C/C(=O)O)C(=O)N[C@@H](C(C)C)C(=O)N[C@@H](Cc2ccc(O)cc2)C(=O)N[C@@H](Cc2ccccc2)C(=O)N[C@@H](CCCCN)C(=O)N[C@@H](Cc2c[nH]cn2)C(=O)N1)C(=O)N[C@H](C(=O)N[C@@H](Cc1c[nH]c2ccccc12)C(=O)O)[C@@H](C)CC [QP-3] (Fumaroyl-DEEEVYFKHKDIIW-OH; lactam 4-10)
EC50 (human ETB receptor): 3.85 nM

— patent EP4702986A1, “POLYPEPTIDE AND USE THEREOF” (Biocells (Beijing) Biotech Co., Ltd., priority 2023, dated 2024)
